From ChEMBL document CHEMBL1201862, “PubChem BioAssay data set” (2004)
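Dose response: 5 concentrations. Exposure: 48 h. Format: 96-well plates. Endpoint: linear interpolation; highest concentration if not reached. The concentration for 50% growth inhibition is given as GI50.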 Active and inactive are the calls of the source. Cut-off read from the data, not from the text of the source: active = GI50 up to about 1.1 µM and inactive = higher.

Key:
Test in all cases: growth of human tumour cells (NCI), 48 h
786-0 = tested on: 786-0
A498 = tested on: A498
A549 = tested on: A549
ACHN = tested on: ACHN
BT-549 = tested on: BT-549
CAKI-1 = tested on: CAKI-1
CCRF-CEM = tested on: CCRF-CEM
COLO 205 = tested on: COLO 205
DU-145 = tested on: DU-145
EKVX = tested on: EKVX
HCC 2998 = tested on: HCC 2998
HCT-116 = tested on: HCT-116
HCT-15 = tested on: HCT-15
HL-60 = tested on: HL-60
HOP-62 = tested on: HOP-62
HOP-92 = tested on: HOP-92
HT-29 = tested on: HT-29
Hs-578T = tested on: Hs-578T
IGROV-1 = tested on: IGROV-1
K562 = tested on: K562
KM12 = tested on: KM12
LOX IMVI = tested on: LOX IMVI
M14 = tested on: M14
MCF7 = tested on: MCF7
MDA-MB-231 = tested on: MDA-MB-231
MDA-MB-435 = tested on: MDA-MB-435
MDA-N = tested on: MDA-N
MOLT-4 = tested on: MOLT-4
Malme-3M = tested on: Malme-3M
NCI-H226 = tested on: NCI-H226
NCI-H23 = tested on: NCI-H23
NCI-H460 = tested on: NCI-H460
NCI/ADR-RES = tested on: NCI/ADR-RES
OVCAR-3 = tested on: OVCAR-3
OVCAR-4 = tested on: OVCAR-4
OVCAR-5 = tested on: OVCAR-5
OVCAR-8 = tested on: OVCAR-8
PC-3 = tested on: PC-3
RPMI-8226 = tested on: RPMI-8226
RXF 393 = tested on: RXF 393
SF-268 = tested on: SF-268
SF-295 = tested on: SF-295
SF-539 = tested on: SF-539
SK-MEL-28 = tested on: SK-MEL-28
SK-MEL-2 = tested on: SK-MEL-2
SK-MEL-5 = tested on: SK-MEL-5
SK-OV-3 = tested on: SK-OV-3
SN12C = tested on: SN12C
SNB-19 = tested on: SNB-19
SNB-75 = tested on: SNB-75
SR = tested on: SR
SW-620 = tested on: SW-620
T47D = tested on: T47D
TK-10 = tested on: TK-10
U-251 = tested on: U-251
UACC-257 = tested on: UACC-257
UACC-62 = tested on: UACC-62
UO-31 = tested on: UO-31

For `COc1ccc(C(C)NNC(=O)c2ccncc2)cc1F` (stereo not drawn), the GI50 (786-0) was > 100 µM (inactive), the GI50 (A498) was > 100 µM (inactive) and the GI50 (A549) was > 100 µM (inactive). The GI50 (ACHN) was > 100 µM (inactive), the GI50 (BT-549) was > 100 µM (inactive) and the GI50 (CAKI-1) was > 100 µM (inactive). For the same compound, the GI50 (CCRF-CEM) was > 100 µM (inactive), the GI50 (COLO 205) was > 100 µM (inactive) and the GI50 (DU-145) was > 100 µM (inactive). The GI50 (EKVX) was > 100 µM (inactive), the GI50 (HCC 2998) was > 100 µM (inactive) and the GI50 (HCT-116) was > 100 µM (inactive). The GI50 (HCT-15) was greater than 100 µM, the GI50 (HL-60) was > 100 µM (inactive) and the GI50 (HOP-62) was > 100 µM (inactive). For the same compound, the GI50 (HOP-92) was > 100 µM (inactive), the GI50 (HT-29) was > 100 µM (inactive) and the GI50 (Hs-578T) was > 100 µM (inactive). The GI50 (IGROV-1) was > 100 µM (inactive), the GI50 (K562) was > 100 µM (inactive) and the GI50 (KM12) was > 100 µM (inactive). The GI50 (LOX IMVI) was > 100 µM (inactive), the GI50 (M14) was > 100 µM (inactive) and the GI50 (MCF7) was > 100 µM (inactive). For the same compound, the GI50 (MDA-MB-231) was > 100 µM (inactive), the GI50 (MDA-MB-435) was > 100 µM (inactive) and the GI50 (MDA-N) was > 100 µM (inactive). The GI50 (MOLT-4) was > 100 µM (inactive), the GI50 (Malme-3M) was > 100 µM (inactive) and the GI50 (NCI-H226) was > 100 µM (inactive). For the same compound, the GI50 (NCI-H23) was > 100 µM (inactive), the GI50 (NCI-H460) was > 100 µM (inactive) and the GI50 (NCI/ADR-RES) was > 100 µM (inactive). For the same compound, the GI50 (OVCAR-3) was > 100 µM (inactive), the GI50 (OVCAR-4) was > 100 µM (inactive) and the GI50 (OVCAR-5) was > 100 µM (inactive). The GI50 (OVCAR-8) was > 100 µM (inactive), the GI50 (PC-3) was > 100 µM (inactive) and the GI50 (RPMI-8226) was > 100 µM (inactive). The GI50 (RXF 393) was > 100 µM (inactive), the GI50 (SF-268) was > 100 µM (inactive) and the GI50 (SF-295) was > 100 µM (inactive). The GI50 (SF-539) was > 100 µM (inactive), the GI50 (SK-MEL-28) was > 100 µM (inactive) and the GI50 (SK-MEL-2) was > 100 µM (inactive). For the same compound, the GI50 (SK-MEL-5) was > 100 µM (inactive), the GI50 (SK-OV-3) was > 100 µM (inactive) and the GI50 (SN12C) was > 100 µM (inactive). For the same compound, the GI50 (SNB-19) was > 100 µM (inactive), the GI50 (SNB-75) was > 100 µM (inactive) and the GI50 (SR) was > 100 µM (inactive). For the same compound, the GI50 (SW-620) was > 100 µM (inactive), the GI50 (T47D) was > 100 µM (inactive) and the GI50 (TK-10) was > 100 µM (inactive). The GI50 (U-251) was > 100 µM (inactive), the GI50 (UACC-257) was > 100 µM (inactive) and the GI50 (UACC-62) was > 100 µM (inactive). For the same compound, the GI50 (UO-31) was > 100 µM (inactive).
